Assay [1] deals with sheep liver fluke (Fasciola hepatica). In words: Fluke egg count in faeces and adult fluke count in liver of infected sheep after a single s/c dose (Table 3). Format: in vivo. As to conditions: for POST MORTEM RESULT No. of adult fluke: liver. As to the method: Compositions suitable for use as experimental injectable solutions were prepared by formulating the compounds as solutions of their salts either in water or in a mixture of water and ethylene glycol or water and polyethylene glycol (PEG200).
Compositions prepared by the method of Example 10 were used as a single dose to test sheep infected with sheep liver fluke (Fasciola hepatica). The number of liver fluke eggs in the faeces was measured at the time of treatment and at selected intervals up to 30 days after treatment. The sheep were killed and the number of adult fluke in the liver counted. The amount and structure of the active ingredient in each composition and the results of treatment of a sheep with that composition are given in the Table 3 below. The compositions were administered by sub-cutaneous injection (s/c).

Assay [2] concerns live Fasciola hepatica. The assay can be described thus: Minimum effective concentration against live Fasciola hepatica in Hedon-Fleig medium (Table 4). As to conditions: in vitro, assessed 24 hours after treatment, read-out: MINIMUM EFFECTIVE CONCENTRATION (minimum concentration required to kill Fasciola hepatica). As to the method: The minimum effective concentration of compounds of formula I against live Fasciola hepatica was tested by the direct application of the test compound, in solution, to live Fasciola hepatica in Hedon-Fleig medium. The results are given in Table 4 where the minimum effective concentration (minimum concentration required to kill Fasciola hepatica) was assessed 24 hours after treatment with the test compound.

As to `CC(C)SC(c1cc(Cl)cc([N+](=O)[O-])c1O)c1cc(Cl)cc([N+](=O)[O-])c1O` [Compound 30], in assay [1] (single dose 12.0 mg/kg), the “FAECAL EGG COUNT, day 7” value amounted to 10 Eggs/g faeces; the “FAECAL EGG COUNT, day 14” value was 0 Eggs/g faeces; the “POST MORTEM RESULT No. of adult fluke” value is 1.

With `O=[N+]([O-])c1cc(Cl)cc(C(Oc2ccccc2)c2cc(Cl)cc([N+](=O)[O-])c2O)c1O` [Compound 32], in assay [2], the minimal effective concentration is 5 µg/mL.

For the molecule `N#Cc1ccc(OC(c2cc(Cl)cc([N+](=O)[O-])c2O)c2cc(Cl)cc([N+](=O)[O-])c2O)cc1` [Compound 33], in assay [2], the minimal effective concentration amounted to 5 µg/mL.

In the case of `O=[N+]([O-])c1cc(Cl)cc(C(Oc2cccc(F)c2)c2cc(Cl)cc([N+](=O)[O-])c2O)c1O` [Compound 34], in assay [2], the minimal effective concentration came to 5 µg/mL.

As to `O=[N+]([O-])c1cc(Cl)cc(C(Oc2ccc(F)cc2)c2cc(Cl)cc([N+](=O)[O-])c2O)c1O` [Compound 35], the minimal effective concentration in assay [2] came out at 5 µg/mL.

Turning to `CC(OC(c1cc(Cl)cc([N+](=O)[O-])c1O)c1cc(Cl)cc([N+](=O)[O-])c1O)c1ccccc1` (stereo not shown) [Compound 36], in assay [2], the minimal effective concentration amounted to 1 µg/mL.

On to `O=[N+]([O-])c1cc(Cl)cc(C(OCc2cccc(F)c2)c2cc(Cl)cc([N+](=O)[O-])c2O)c1O` [Compound 37], for which, in assay [1] (single dose 6.0 mg/kg), the “FAECAL EGG COUNT, day 7” value stood at 0 Eggs/g faeces; the “FAECAL EGG COUNT, day 14” value turned out to be 0 Eggs/g faeces; the “POST MORTEM RESULT No. of adult fluke” value is listed as 2.

With `O=[N+]([O-])c1cc(Cl)cc(C(OCc2ccc(Cl)cc2)c2cc(Cl)cc([N+](=O)[O-])c2O)c1O` [Compound 38], in assay [2], the minimal effective concentration was 1 µg/mL.

Regarding `O=[N+]([O-])c1cc(Cl)cc(C(OCc2ccc(F)cc2)c2cc(Cl)cc([N+](=O)[O-])c2O)c1O` [Compound 40], in assay [1] (single dose 2.0 mg/kg), the “FAECAL EGG COUNT, day 7” value is 0 Eggs/g faeces and the “FAECAL EGG COUNT, day 14” value is listed as 130 Eggs/g faeces. In assay [1] (single dose 6.0 mg/kg), the “FAECAL EGG COUNT, day 7” value was 0 Eggs/g faeces; the “FAECAL EGG COUNT, day 14” value was 0 Eggs/g faeces; the “POST MORTEM RESULT No. of adult fluke” value came out at 0.

As to `CCCSC(c1cc(Cl)cc([N+](=O)[O-])c1O)c1cc(Cl)cc([N+](=O)[O-])c1O` [Compound 45], in assay [1] (single dose 12.0 mg/kg), the “FAECAL EGG COUNT, day 7” value amounted to 10 Eggs/g faeces; the “FAECAL EGG COUNT, day 14” value stood at 0 Eggs/g faeces; the “POST MORTEM RESULT No. of adult fluke” value was found to be 1.

For `CCC(C)SC(c1cc(Cl)cc([N+](=O)[O-])c1O)c1cc(Cl)cc([N+](=O)[O-])c1O` (stereo not shown) [Compound 47], in assay [1] (single dose 12.0 mg/kg), the “FAECAL EGG COUNT, day 7” value came to 10 Eggs/g faeces and the “FAECAL EGG COUNT, day 14” value was determined as 30 Eggs/g faeces.

Consider `O=[N+]([O-])c1cc(Cl)cc(C(Sc2ccccc2)c2cc(Cl)cc([N+](=O)[O-])c2O)c1O` [Compound 50], for which, in assay [1] (single dose 12.0 mg/kg), the “FAECAL EGG COUNT, day 7” value amounted to 100 Eggs/g faeces; the “FAECAL EGG COUNT, day 14” value turned out to be 0 Eggs/g faeces; the “POST MORTEM RESULT No. of adult fluke” value was 0.

In the case of `O=[N+]([O-])c1cc(Cl)cc(C(Sc2ccc(Cl)cc2)c2cc(Cl)cc([N+](=O)[O-])c2O)c1O` [Compound 51], in assay [1] (single dose 12.0 mg/kg), the “FAECAL EGG COUNT, day 7” value came to 10 Eggs/g faeces; the “FAECAL EGG COUNT, day 14” value is 0 Eggs/g faeces; the “POST MORTEM RESULT No. of adult fluke” value is 0.

For the molecule `O=[N+]([O-])c1cc(Cl)cc(C(c2cc(Cl)cc([N+](=O)[O-])c2O)C(F)(F)C(F)(F)C(F)(F)F)c1O` [Compound 55], in assay [1] (single dose 2.0 mg/kg), the “FAECAL EGG COUNT, day 7” value turned out to be 20 Eggs/g faeces; the “FAECAL EGG COUNT, day 14” value came to 0 Eggs/g faeces; the “POST MORTEM RESULT No. of adult fluke” value is reported as 1. Further, in assay [1] (single dose 6.0 mg/kg), the “FAECAL EGG COUNT, day 7” value was 50 Eggs/g faeces; the “FAECAL EGG COUNT, day 14” value is 20 Eggs/g faeces; the “POST MORTEM RESULT No. of adult fluke” value is 0.

For the origin of these results see patent US4251546A, “Process for killing internal helminths using certain 1,1-bis-(2-substituted-3-nitrophenyl)alkane or alkylene derivatives” (ICI Australia Limited, priority 1977, dated 1981).
